According to patent US8603764B2, “EphA kinase cancer diagnostic” (Case Western Reserve University, priority 2009, dated 2013):
Entries after “also recorded” stand apart in the source; their conditions may differ.

Experiments:
U373 cells = experiment: Boyden chamber chemotactic cell migration assay; assay type: cell-based, human; conditions: 10 ng/ml growth factor or 10 μM LPA
Experimental: The chemotactic cell migration was carried out as described previously (J. Cell Biol. 162, 1281-1292). Briefly, both sides of the filter were coated with 10 μg/ml rat tail collagen type I at 4° C. overnight. 1×10^5 cells in serum-free medium containing 0.1% BSA were plated in the top of insert. EphrinA1-Fc or Fc was added to a final concentration of 1 μg/ml to the lower chamber together 5% FBS or various growth factors. Cells were allowed to migrate for 4 hours and then fixed with 4% paraformaldehyde. After staining with 0.5% crystal violet, cells that have passed through the filter and stayed on the undersides of inserts were counted.

pS897-EphA2 = experiment: Immunoblot with polyclonal anti-pS897-EphA2, U373 cells; assay type: cell-based, human; conditions: for induction of pS897-EphA2: serum-starved U373 cells, 10 ng/ml growth factor, 10 min; for serum-induced pS897-EphA2 under FGFR inhibition: U373 cells pretreated with 10 μM SU5402 or 100 nM BU for 30 min, 10% FBS 10 min
Experimental: For stationary cells, sub-confluent cells were stimulated with 1 μg/ml ephrinA1-Fc for different times. To study the signaling events in migrating cells, the monolayer of freshly confluent cells was wounded by repeated scratch-wounding using a multichannel pipette. By doing so, the cells on the wound edges were induced to migrate. Four hours after wounding cells were stimulated with 1 μg/ml ephrinA1-Fc for different times. To look at the serum-induced signaling, cells were starved in serum-free medium overnight before stimulation or wounding. Both stationary and wounded cells were stimulated with 10% FBS in the presence of 1 μg/ml Fc or ephrinA1-Fc. Immunoprecipitation and immunoblot were performed as described previously (Nat. Cell Biol. 2, 62-69).

Row | Compound | chemoattractant activity (chemotactic cell migration) (U373 cells) | induction of pS897-EphA2 (pS897-EphA2) | serum-induced pS897-EphA2 under FGFR inhibition (pS897-EphA2) | serum-induced pS897-EphA2 (S897 phosphorylation) (pS897-EphA2; serum-starved U373 cells pretreated with 10 μM inhibitor (SH-5 30 min; LY294002 1 hour), FBS 10 min)
1 | bFGF: growth factor implicated in development of human GBM | potent chemoattractants | capable of inducing pS897-EphA2 |  | 
2 | PDGF | potent chemoattractants | capable of inducing pS897-EphA2 |  | 
3 | EGF: growth factor implicated in development of human GBM (NSDSECPLSHDGYCLHDGVCMYIEALDKYACNCVVGYIGERCQYRDLKWWELR; UniProt P01133 971-1023, looked up) | potent chemoattractants | capable of inducing pS897-EphA2 |  | 
4 | Cc1c[nH]c(/C=C2\C(=O)Nc3ccccc32)c1CCC(=O)O [SU5402, reference compound] |  |  | not sufficient for inhibiting serum-induced pS897-EphA2 | 
5 | CCCCCCCCCCCCCCCCCCOC[C@H](COP(=O)(O)O[C@H]1[C@H](O)[C@@H](O)[C@H](O)C[C@H]1OC)OC [SH-5, reference compound] |  |  |  | suppressed S897 phosphorylation; also recorded: abolishes serum-induced pS897-EphA2
6 | COc1cc(OC)cc(-c2cc3cnc(N)nc3nc2NC(=O)NC(C)(C)C)c1 [BU, 1-(2-Amino-6-(3,5-dimethoxyphenyl)pyrido[2,3-d]pyrimidin-7-yl)-3-tert-butyl urea, reference compound] |  |  | not sufficient for inhibiting serum-induced pS897-EphA2 | 
7 | HGF: growth factor implicated in development of human GBM | potent chemoattractants | capable of inducing pS897-EphA2 |  | 
